Data reported in patent US12264156B2, “Compounds and pharmaceutical compositions thereof for the treatment of diseases” (GALAPAGOS NV, priority 2018, dated 2025).

How the values were obtained:
[1] = test system: lung fibrosis induced by radiation; assay: Radiation induced fibrosis mouse model; assay type: in vivo; settings: 60 mg/kg p.o. b.i.d.
Source text: Pneumonitis and lung fibrosis are the major radiation-induced complications following thoracic radiotherapy, which is one of the major treatment of lung and breast cancers, lymphomas and hematopoietic transplant conditioning. The objective of this model was to evaluate the effect of a compound of the invention in lung fibrosis induced by radiation in mice (Favaudon et al. 2014), in particular on lung functionality (Flexivent) and fibrosis marker (Collagen I).
7 weeks old (18-22 gr) female C57BL/6J mice from Charles River (Écully, France), batch number S1672) were maintained on 12 h light/dark cycle at 22° C. with ad libitum access to tap water and food. […]
Body weight was recorded once a week, and on D23, lung function measurement under anesthesia was realized by Flexivent (Devos et al. 2017) for all groups (6 successful measurement per group) before sacrifice.
Lungs were collected and fixed in 4% formaldehyde for 24 h before embedding in paraffin. […] The anti-collagen I antibody was detected and amplified by ImmPress kit (Vector Laboratories, 3, Accent Park, Bakewell Road, Orton Southgate, Peterborough, PE2 6XS, United Kingdom, Cat #MP-7401). The immunostained sections were then scanned (Nanozoomer, Hamamatsu) before quantification by image analysis (CaloPix software, TRIBVN Healthcare). Data were expressed as percentage collagen I area per area of lung tissue. […]

[2] = test system: mouse T cell transfer model; assay: T cell transfer model (mice); assay type: in vivo; settings: 30 mg/kg p.o. b.i.d.
Source text: DynaMag (Cat #12321D and 123203D) were obtained from Life Technologies Invitrogen (California, USA); DynabeadsFlowComp Mouse CD4+CD25-treg cells (Cat #11463D) were obtained from Life Technologies Invitrogen (California, USA), Fetal Bovine Serum (GIBCO), Cat #10270-106; RPMI (Gibco) Cat #32404-014 and D-PBS 1× without CaCl2 without MgCl2 (GIBCO), Cat #14190-086 were obtained ThermoFisher Scientific (Massachusetts, USA). Red Blood Cell (RBC) lysis buffer 10×, Cat #BLE420301 obtained from Ozyme (Montigny-le-Bretonneux, France). Cell strainer (70 μm grid), Cat #352350, obtained from Corning (New York, USA). […]
Fourteen days after cell injection, 100 μL of blood was sampled on each mouse under anesthesic conditions in order to determine CD4 level. […] Disease activity index was determined twice a week. Four to six weeks after the start of treatment, mice were sacrificed, blood was sampled and the complete colon was removed and rinsed with sterile PBS, it was measured and weighed in order to determine colon weight/length ratio. […]
There were 12 mice per group. The results were expressed as mean±SEM and statistical analysis was performed using non parametric test Kruskal-Wallis with Dunn's Multiple comparison test versus vehicle groups. […]

## COc1cc(-c2cnc3cc(OCCN4CCOCC4)ccn23)cc2c1C(=O)N(CC(F)(F)F)CC2 [Cpd 88, 8-methoxy-6-[7-(2-morpholinoethoxy)imidazo [1,2-a]pyridin-3-yl]-2-(2,2,2-trifluoroethyl)-3,4-dihydroisoquinolin-1-one]
[1]
  ColI (collagen I) extent vs. vehicle group: statistically significant reduction of ColI (collagen I) extent
[2]
  AUC of DAI vs. vehicle group: statistical significant reduction of AUC of DAI
